Here are results for 23 compounds from patent US6891043B2, “Inhibitors of fatty acid amide hydrolase” (The Scripps Research Institute, priority 2000, dated 2005).

pKi: −log10 of the molar value. Entries after “also recorded” stand apart in the source; their conditions may differ. A value given as a limit tells only on which side of the number the result lay.

Data set [1] has as its target T1, FAAH (Homo sapiens, UniProt O00519).
T1 sequence (O00519 1-579): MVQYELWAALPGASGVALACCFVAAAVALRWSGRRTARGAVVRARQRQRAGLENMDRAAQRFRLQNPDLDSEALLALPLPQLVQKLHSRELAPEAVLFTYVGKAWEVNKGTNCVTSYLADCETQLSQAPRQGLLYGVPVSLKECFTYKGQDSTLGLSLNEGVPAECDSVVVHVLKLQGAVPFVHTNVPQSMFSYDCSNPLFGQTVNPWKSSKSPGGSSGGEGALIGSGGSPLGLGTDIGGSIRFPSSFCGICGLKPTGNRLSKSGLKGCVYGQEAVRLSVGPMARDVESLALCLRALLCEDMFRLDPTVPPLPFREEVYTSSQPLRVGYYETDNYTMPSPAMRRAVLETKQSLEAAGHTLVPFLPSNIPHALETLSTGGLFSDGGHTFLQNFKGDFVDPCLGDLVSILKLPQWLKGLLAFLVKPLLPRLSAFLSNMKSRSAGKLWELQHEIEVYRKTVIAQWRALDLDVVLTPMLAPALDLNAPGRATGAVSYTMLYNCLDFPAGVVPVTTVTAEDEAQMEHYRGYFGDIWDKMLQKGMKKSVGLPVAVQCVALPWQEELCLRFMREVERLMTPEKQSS
The conditions noted are these: FAAH substrate preference; cited from earlier work.

Data set [2] concerns the target T2, FAAH (Rattus norvegicus, UniProt P97612).
T2 construct: using a solubilized liver plasma membrane extract containing FAAH; from tissue; host or cells: liver (solubilized plasma membrane extract)
T2 sequence (P97612 1-579): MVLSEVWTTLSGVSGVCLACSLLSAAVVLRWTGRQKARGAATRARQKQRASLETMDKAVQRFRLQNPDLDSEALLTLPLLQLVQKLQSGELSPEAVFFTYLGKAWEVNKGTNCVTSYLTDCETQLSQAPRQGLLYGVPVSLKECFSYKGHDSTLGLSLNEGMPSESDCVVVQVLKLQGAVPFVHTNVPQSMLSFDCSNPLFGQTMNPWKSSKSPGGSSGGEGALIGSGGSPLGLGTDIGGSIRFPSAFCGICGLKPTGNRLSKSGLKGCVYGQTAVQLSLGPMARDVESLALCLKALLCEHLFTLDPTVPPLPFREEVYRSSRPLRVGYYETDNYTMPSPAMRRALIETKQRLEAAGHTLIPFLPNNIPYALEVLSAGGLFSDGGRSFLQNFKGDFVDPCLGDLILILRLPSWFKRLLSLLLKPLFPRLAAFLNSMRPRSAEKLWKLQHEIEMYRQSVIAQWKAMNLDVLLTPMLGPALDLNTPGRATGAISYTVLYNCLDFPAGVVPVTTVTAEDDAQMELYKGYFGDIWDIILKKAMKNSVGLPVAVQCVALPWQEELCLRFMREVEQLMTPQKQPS
Nature of the data set: FAAH inhibition: breakdown of 14C-oleamide to oleic acid, solubilized liver plasma membrane extract. The class given is biochemical. The conditions noted are these: for pKi: Dixon method, 14C-oleamide substrate, pH 9.0, 20-23° C., read-out: K1. The protocol:
K1 values were determined by the Dixon method α-intercepts of weighted linear fits of […] plots at constant substrate concentration, which were converted to K1 values using the formula K1=−xint/[1+[S]/Km]).

The test system of data set [3] is treated animals. Nature of the data set: In vivo sleep study with 17 (wakefulness, SWS2, REM sleep). The conditions noted are these: 10 mg/kg ip, first 4 h of administration, versus controls. The source says: The in vivo properties of the inhibitors detailed herein and their action on the identified oleamide and anandamide potential sites of action are presented herein. […] Accordingly, the inhibitors disclosed herein are useful as inhibitors of FAAH and related amidases, and as a therapeutic agents with applications as sleep aids or analgesics which act by preserving endogenous levels of oleamide and anandamide.

As a reminder, the melting point is the temperature of the solid-liquid transition.

In the case of `CCCCC/C=C\C/C=C\C/C=C\C/C=C\CCCC(N)=O` [arachidonamide], in data set [1], the “rel. rate of hydrolysis” value is 1.

Turning to `CCCCCCCC/C=C\CCCCCCCC(=O)c1nnn(C)n1` [compound 14, 1-(2-Methyl-2H-tetrazol-5-yl)-1-oxo-9(Z)-octadecene], in data set [2], the “FAAH inhibitor potency / activity in words” value was “matched the potency of the trifluoromethyl ketone 3”.

`CCCCCCCC/C=C\CCCCCCCC(=O)c1cccnn1` [compound 17, 1-Oxo-1-(3-pyridazinyl)-9(Z)-octadecene]: in data set [3], the “decrease of time spent in wakefulness, of the total time” value is reported as 14%; the “increase of time spent in REM sleep” value is reported as 75%; the “increase of time spent in REM sleep, of total time” value was 4%; the “increase of time spent in SWS2” value turned out to be 45%. For the same compound, in data set [3], the “increase of time spent in SWS2, of the total time” value was found to be 10% and the “reduction of time spent in wakefulness” value is recorded as 20%. Moreover, the “FAAH inhibitor potency / activity in words” value in data set [2] is “more potent than 33 and 35, respectively”.

Consider `CCCCCCCC/C=C\CCCCCCCC(=O)c1nc2ccccc2o1` [compound 23, 1-(2-Benzoxazolyl)-1-oxo-9(Z)-octadecene], for which, in data set [2], the “FAAH inhibitor potency / activity in words” value is reported as “more potent than 37”.

Turning to `CCCCCCCC/C=C\CCCCCCCC(=O)c1nc2cccc(C)c2o1` [compound 28, 1-(7-Methylbenzoxazol-2-yl)-1-oxo-9(Z)-octadecene], the “FAAH inhibitor potency / activity in words” value in data set [2] was “greatly diminished”.

With `CCCCCCCC/C=C\CCCCCCCC(=O)c1nc2ncccc2o1` [compound 29, 1-(Oxazolo[4,5-b]pyridin-2-yl)-1-oxo-9(Z)-octadecene], the “FAAH inhibitor potency / activity in words” value in data set [2] is “most potent inhibitor; also recorded: more potent than 33 and 35, respectively”.

As for `CCCCCCCC/C=C/CCCCCCCC(=O)c1nc2ncccc2o1` [compound 33, 1-(Oxazolo[4,5-b]pyridin-2-yl)-1-oxo-9(E)-octadecene], the “FAAH inhibitor potency / activity in words” value in data set [2] was “more potent than 34 and 36”.

On to `CCCCCCCC/C=C/CCCCCCCC(=O)c1cccnn1` [compound 35, 1-Oxo-1-(3-pyridazinyl)-9(E)-octadecene], for which, in data set [2], the “FAAH inhibitor potency / activity in words” value was “more potent than 34 and 36”.

Turning to `CCCCCCCCCCCCCCCC(=O)c1nc2ncccc2o1` [compound 42, 1-(Oxazolo[4,5-b]pyridin-2-yl)-1-oxo-hexadecane], the melting point is 77 to 78 °C.

With `CCCCCCCCCCCCCC(=O)c1nc2ncccc2o1` [compound 43, 1-(Oxazolo[4,5-b]pyridin-2-yl)-1-oxo-tetradecane], the melting point is 73 to 74 °C.

Consider `CCCCCCCCCCCC(=O)c1nc2ncccc2o1` [compound 44, 1-(Oxazolo[4,5-b]pyridin-2-yl)-1-oxo-dodecane], for which the melting point was in the range of 68 to 69 °C.

`CCCCCCCCCC(=O)c1nc2ncccc2o1` [compound 45, 1-(Oxazolo[4,5-b]pyridin-2-yl)-1-oxo-decane] had a melting point of 60 to 62 °C.

Take `CCCCCCCC(=O)c1nc2ncccc2o1` [compound 46, 1-(Oxazolo[4,5-b]pyridin-2-yl)-1-oxo-octane]: the melting point was 60 to 61 °C.

In turn, `CCCCCCC(=O)c1nc2ncccc2o1` [compound 47, 1-(Oxazolo[4,5-b]pyridin-2-yl)-1-oxo-heptane] showed a melting point of 52 to 53 °C.

As for `CCCCCC(=O)c1nc2ncccc2o1` [compound 48, 1-(Oxazolo[4,5-b]pyridin-2-yl)-1-oxo-hexane], the melting point lay in the range of 51 to 53 °C.

As for `CCCCC(=O)c1nc2ncccc2o1` [compound 49, 1-(Oxazolo[4,5-b]pyridin-2-yl)-1-oxo-pentane], the melting point was in the range of 35 to 37 °C.

Take `CC(=O)c1nc2ncccc2o1` [compound 50, 1-(Oxazolo[4,5-b]pyridin-2-yl)-1-oxo-ethane]: the melting point lay within 103 to 105 °C.

Compound `O=C(CCCCCc1ccccc1)c1nc2ncccc2o1` [compound 53, 1-(Oxazolo[4,5-b]pyridin-2-yl)-1-oxo-6-phenylhexane] had a melting point of 61 to 63 °C. Also, in data set [2], the pKi was greater than 9.70.

In turn, `O=C(CCCCCCc1ccccc1)c1nc2ncccc2o1` [compound 54, 1-(Oxazolo[4,5-b]pyridin-2-yl)-1-oxo-7-phenylheptane] displayed a melting point of 60 to 61 °C.

`O=C(CCCCCCCc1ccccc1)c1nc2ncccc2o1` [compound 55, 1-(Oxazolo[4,5-b]pyridin-2-yl)-1-oxo-8-phenyloctane] returned a melting point of 70 to 73 °C.

For `CCCCCCCCCCCC(O)c1nc2ncccc2o1` (stereo not shown) [compound 60, 1-Hydroxy-1-(oxazolo[4,5-b]pyridin-2-yl)dodecane], the pKi in data set [2] is 5.92. For the same compound, the “times less potent than the corresponding keto derivative (reduction to alcohol)” value in data set [2] (α-hydroxy versus α-keto) was “approximately 10^3 times”.

The compound `CCCCCCCCCCCCCCCCCCc1nc2ncccc2o1` [compound 61, 1-(Oxazolo[4,5-b]pyridin-2-yl)octadecane] had a melting point of 84 to 85 °C. Besides, the “FAAH inhibitor potency / activity in words” value in data set [2] was “inactive”. Also, the “additional fold loss of binding affinity with removal of the alcohol” value in data set [2] (versus α-hydroxy compound) was 10^2 fold. Besides, the “fold loss of binding affinity / potency with removal of the keto group” value in data set [2] (versus α-keto compound) is reported as 10^5 fold.

Consider `CCCCCCCC/C=C\CCCCCCCC(N)=O` [oleamide], for which, in data set [1], the “rel. rate of hydrolysis” value is listed as 0.7.
